In patent US4520029A, “Farnesene derivatives, mucosal stabilizing compositions and method of manufacturing the same” (Kotobuki Seiyaku Co., Ltd., priority 1980, dated 1985):

Experiments:
[1] = Acute toxicity in ddY strain mice, up and down method, oral; conditions: mouse, in vivo, suspended in 1% methyl cellulose, given orally, observation 24 hours, read-out: LD50 (per os)
Method: Acute toxicity of the compounds of the present invention in ddY strain mice was determined by the up and down method, with observation for 24 hours. The compounds in this experiment were suspended in 1% methyl cellulose and given orally.

[2] = test system: stress ulcer; assay: Stress ulcer in rats (anti-ulcerative action); type: in vivo, rat; conditions: 100 mg/kg per os, male Wister rats, 30 minutes before the stress; stressing 18 hours; control 4.6 ± 0.70
Method: To study the anti-ulcerative actions of these compounds of the present invention further, the stress ulcer was selected. Male Wister rats, weighing 200-250 g were subjected to stress according to Takagi et al. (Chem. Pharm. Bull 12, 465, 1964). These compounds were suspended in 1% methyl cellulose and were administered to the rat at a dose of 100 mg/kg body weight per os, 30 minutes before the stress. After stressing for 18 hours, the animals were killed by a blow on the head. The removed stomach was filled with 1% formalin solution, placed in 1% formalin solution for 15 minutes and was then cut open along the greater curvature and examined for lesion to obtain the ulcer index. The ulcer index was determined in six grades (0-5; 5 implying perforation of stomach).

[3] = test system: gastric epithelial cell; assay: Gastric epithelial cell stabilizing effect in pylorus-ligated rats (NANA in gastric juice); type: in vivo, rat; conditions: male Donryu rats, oral three times a day for five days, 8 hours after pylorus ligation; for NANA content in gastric juice, free: control 22.5, * P < 0.05 vs control (V, VI and VII all marked *); for NANA content in gastric juice, bound: control 93.3; for NANA content in gastric juice, bound / NANA content in gastric juice, total: * P < 0.05 vs control (only V marked *); for NANA content in gastric juice, total: control 115.8
Method: The investigation of the gastric epithelial cell stabilizing effects of these compounds were examined in rats. Male Donryu strain rats, weighing about 200 g, were given the test compound orally three times a day for five days. On the fifth day the animals were fasted for 24 hours, and submitted to pylorus ligation under light ether anesthesia. The test compounds were given just after pylorus ligation orally. After 8 hours of ligation, the rats were sacrificed and the volume of gastric juice was measured. After centrifuging 6 ml of this gastric juice at 5000 r.p.m., 2 ml of the resulting supernatant was submitted to N-acetyl neuraminic acid (NANA) determination according to the method of D. Aminoff (D. Aminoff et al., Biochem. J. […], 384-392 (1961)).

[4] = test system: carragenin-induced rat paw edema; assay: Carragenin-induced rat paw edema (anti-inflammatory effect); type: in vivo; conditions: 300 mg/kg oral, Wister rat, maximum percentage inhibition during 4 hours after administration
Method: The anti-inflammatory effect of these compounds on carragenin-induced rat paw edema was examined in accordance with the method of C. A. Winter (J. Pharmacol. 141, 369, […]. The compounds of the present invention were suspended in 1% methyl-cellulose and orally administered at a dose of 300 mg/kg to Wister rat, weighing about 140 g. The maximum percentage inhibition during 4 hours after administration was calculated as follows: [formula] The results are shown in Table 3.

CC(C)=CCCC(C)=CCCC(C)=CCOC(=O)CC=C(C)CCC=C(C)CCC=C(C)C [Compound V, Farnesyl farnesyl carboxylate]
LD50 at 24 h [1]: 24500 mg/kg | Score (ulcer index, six grades 0-5; 5 implying perforation of stomach) [2]: 1.8 ± 0.50 | NANA content in gastric juice, free [3]: 17.6 µg/mL | NANA content in gastric juice, bound [3]: 74.5 µg/mL | NANA content in gastric juice, total [3]: 92.1 µg/mL | Maximum inhibition [4]: 35.8%

CC(C)=CCCC(C)=CCCC(C)=CCNC(=O)CC=C(C)CCC=C(C)CCC=C(C)C [Compound VI, N-Farnesyl farnesyl carboxamide]
LD50 at 24 h [1]: 18700 mg/kg | Score (ulcer index, six grades 0-5; 5 implying perforation of stomach) [2]: 2.3 ± 0.72 | NANA content in gastric juice, free [3]: 18.3 µg/mL | NANA content in gastric juice, bound [3]: 87.4 µg/mL | NANA content in gastric juice, total [3]: 105.7 µg/mL | Maximum inhibition [4]: 30.1%

CC(C)=CCCC(C)=CCCC(C)=CCNC(=O)OCC=C(C)CCC=C(C)CCC=C(C)C [Compound VII, N-Farnesyl farnesyl carbamate]
LD50 at 24 h [1]: 20200 mg/kg | Score (ulcer index, six grades 0-5; 5 implying perforation of stomach) [2]: 2.1 ± 0.41 | NANA content in gastric juice, free [3]: 16.7 µg/mL | NANA content in gastric juice, bound [3]: 81.3 µg/mL | NANA content in gastric juice, total [3]: 98.3 µg/mL | Maximum inhibition [4]: 23.7%
